Results on 6 compounds are retold here after ChEMBL document CHEMBL1152675, “3,4-Dihydropyrimido(1,2-a)indol-10(2H)-ones as potent non-peptidic inhibitors of caspase-3” (Bioorg Med Chem, 2009).

The nature of the data set: Chemical stability in 90% deionized water after 24 hrs by NMR spectroscopy. Format: physicochemical. Particulars: read-out: Stability.
As to `O=C1C2=NCC3(CCCCC3)CN2c2ccc(S(=O)(=O)N3CCC[C@H]3COc3ccccc3)cc21`, the remaining at 24 h is 72%.
The value for `COC[C@@H]1CCCN1S(=O)(=O)c1ccc2c(c1)C(=O)C1=NCC3(CCCC3)CN12` was 87%; that for `O=C1C2=NCC3(CCCC3)CN2c2ccc(S(=O)(=O)N3CCC[C@H]3COc3ccccc3)cc21` was 89%.
In the case of `O=C1C2=NCC3(CCC3)CN2c2ccc(S(=O)(=O)N3CCC[C@H]3COc3ccccc3)cc21` it was 69%; in that of `COC[C@@H]1CCCN1S(=O)(=O)c1ccc2c(c1)C(=O)C1=NCC3(CCC3)CN12`, 74%; in that of `COC[C@@H]1CCCN1S(=O)(=O)c1ccc2c(c1)C(=O)C1=NCC3(CCCCC3)CN12`, 71%.
